Entries after “also recorded” stand apart in the source; their conditions may differ. Like-named read-outs stand apart in the source and are kept apart here.
Tests used:
ACC-2D6.3 channel = ACC-2D6.3 channel (Caenorhabditis elegans, UniProt Q18812); assay: cell-based
Source text: (§1) For capped cRNA synthesis, cDNAs were subcloned into the pT7N vector, which contains a T7 RNA polymerase promoter, the 5′- and 3′-UTR of Xenopus laevis beta-globin, and an encoded poly(A+) tail (Cary R B, Klymkowsky M W, Evans R M, Domingo A, Dent J A, Backhus L E (1994) Vimentin's tail interacts with actin-containing structures in vivo. J Cell Sci 107:1609-1622.). The pT7NcDNA constructs were linearized with Sal I (ACC-2D6.3) or BamHI (ACC-1G6.4) and transcribed using the MEGAscript Kit (Ambion, Austin, Tex., USA). Synthesized cRNAs were recovered by LiCl precipitation and resuspended in nuclease-free H2O at final concentration of 1 microgram/ml.
(§2) Oocytes were harvested from mature female Xenopus leavis according to standard procedures (Goldin, A. L. (1992) Maintenance of Xenopus laevis and oocyte injection. Methods Enzymol. 207: 266-79.). To remove inner ovarian epithelium, thecal cell layer, and follicular cells, the ovarian pieces were placed in OR-2 solution: 82.5 mM NaCl, 2 mM KCl, 1 mM MgCl2, and 5 mM Hepes (pH 7.5) containing 1 mg/ml type I collagenase (Sigma, St Louis Mo., USA) either for 3 hours at 20° C. with gentle agitation or for 1 hour followed by manual defolliculization. The stage VI defolliculated oocytes were placed in ND96 solution (96 mM NaCl, 2 mM KCl, 1.8 mM CaCl2, 1 mM MgCl2, and 5 mM Hepes, pH7.5). Oocytes were injected with 40 nl of cRNA using the Nanoject system (Drummond Scientific, Broomall, Pa., USA). Injected oocytes were incubated at 20° C. in ND96 supplemented with […] gentamycin and […] pyruvate. Oocytes were allowed to express cRNA for two days before measurements were taken.
(§3) Two-electrode voltage-clamp recordings were performed using the AxoClamp 2B amplifier (Axon Instruments, Foster City, Calif., USA). Microelectrodes were pulled from borosilicate glass capillaries (Word Precision Instruments, Inc., Sarasota, Fla., USA) on the P-97 micropipette puller Sutter Instruments, Novato, Calif., USA). […] Each oocyte was placed in RC-12 recording chamber (Warner Instrument Inc., Hamden, Conn., USA) or a Maltese cross chamber (ALA Scientific Instruments, Westbury, N.Y., USA) and clamped at −80 mV. Data were acquired at 1 kHz using Clampex software (Axon Instruments, Foster City, Calif., USA).
(§4) Dose-response curves for agonists were generated by their applying the agonist in increasing concentrations followed by 3-9 min washes at each concentration. To determine EC50 and Hill coefficient agonist dose response curves were fit using the following equation: f(I)=(Imax[I]^n/(EC50^n+[I]^n))+Imin, where I is the normalized response to agonist at certain concentration, Imax is the maximal response elicited by a saturating concentration of agonist, EC50 is the concentration of agonist inducing half-maximal response, n is the Hill coefficient, and Imin is the normalized response at lowest agonist concentration.
(§5) The mean and standard error of the mean of peak current responses of at least three oocytes per experiment are represented.
(§6) All drugs were obtained from Sigma-Aldrich (St. Louis, Mo. USA) except imidicloprid (IMI) which was provided by Crompton Co. (Guelph, ON, Canada). Drugs were dissolved in ND96 except IMI, which was made as a stock solution in DMSO and diluted to working concentrations in ND96. If required, drug solutions were adjusted to pH 7.5 with either NaOH or HCl. Fresh solutions were prepared before measurements and stored at 4° C. for 1-5 days.

ACC-3D10.5 = assay: Two-electrode voltage-clamp of Xenopus oocytes injected with ACC-3D10.5 cRNA; format: cell-based, C. elegans; details: 1 mM
Protocol: (§8) Oocytes were harvested from mature female Xenopus leavis according to standard procedures (Goldin, A. L. (1992) Maintenance of Xenopus laevis and oocyte injection. Methods Enzymol. 207: 266-79.). To remove inner ovarian epithelium, thecal cell layer, and follicular cells, the ovarian pieces were placed in OR-2 solution: 82.5 mM NaCl, 2 mM KCl, 1 mM MgCl2, and 5 mM Hepes (pH 7.5) containing 1 mg/ml type I collagenase (Sigma, St Louis Mo., USA) either for 3 hours at 20° C. with gentle agitation or for 1 hour followed by manual defolliculization. The stage VI defolliculated oocytes were placed in ND96 solution (96 mM NaCl, 2 mM KCl, 1.8 mM CaCl2, 1 mM MgCl2, and 5 mM Hepes, pH7.5). Oocytes were injected with 40 nl of cRNA using the Nanoject system (Drummond Scientific, Broomall, Pa., USA). Injected oocytes were incubated at 20° C. in ND96 supplemented with 100 mg/ml gentamycin and 550 mg/ml pyruvate. Oocytes were allowed to express cRNA for two days before measurements were taken.

ACC-4E9.9 = assay: Two-electrode voltage-clamp of Xenopus oocytes injected with ACC-4E9.9 cRNA; format: cell-based, C. elegans; details: 1 mM
Protocol: as §8

ACC-2D6.3+ACC-3D10.5 = format: cell-based, C. elegans; details: 1 mM
Protocol: as §8

ACC-2D6.3+ACC-4E9.9 = format: cell-based, C. elegans; details: 1 mM
Protocol: as §8

ACC-2 Y100L = ACC-2 Y100L (Caenorhabditis elegans, UniProt Q18812, Y100L); assay: Voltage-clamp of Xenopus oocytes expressing ACC-2 mutant Y100L; format: cell-based, C. elegans
Protocol: as §3, §4
(§7) These mutations are substitutions of Leu for Tyr at amino acid 100 (Y100L) and Tyr for Phe at amino acid 160 (F160Y).

ACC-2 F160Y = ACC-2 F160Y (Caenorhabditis elegans, UniProt Q18812, F160Y); assay: Voltage-clamp of Xenopus oocytes expressing ACC-2 mutant F160Y; format: cell-based, C. elegans
Protocol: as §3, §4, §7

ACC-1G6.4 channel [1] = biological target: T1, ACC-1G6.4 channel (Caenorhabditis elegans, UniProt Q21005); assay: Two-electrode voltage-clamp of Xenopus oocytes expressing ACC-1G6.4 homomeric channel; format: cell-based, C. elegans
T1 construct: Agonist: percentage of maximal acetylcholine-elicited response; other: compound at 0.1 mM; Agonist: percentage of maximal acetylcholine-elicited response; other: compound at 0.2 mM; other: compound at 0.4 mM; other: compound at 0.8 mM; Agonist: percentage of maxim
Source text: as §1, §2, §3, §4, §5, §6

ACC-1G6.4 channel [2] = system: T2, ACC-1G6.4 channel; assay: as above; format: cell-based, C. elegans; details: one range given for both channels
T2 construct: rows headed: evoked current as % of the maximal ACh-elicited current; other: text; maximal magnitude of ACh-elicited inward current; other: −80 mV
Source text: as §1, §2, §3, §4, §5, §6

[3] = EC50 (agonist), oocytes clamped at −80 mV, wild type
[4] = concentration tested in brackets where printed

T1 sequence (Q21005 whole entry, looked up): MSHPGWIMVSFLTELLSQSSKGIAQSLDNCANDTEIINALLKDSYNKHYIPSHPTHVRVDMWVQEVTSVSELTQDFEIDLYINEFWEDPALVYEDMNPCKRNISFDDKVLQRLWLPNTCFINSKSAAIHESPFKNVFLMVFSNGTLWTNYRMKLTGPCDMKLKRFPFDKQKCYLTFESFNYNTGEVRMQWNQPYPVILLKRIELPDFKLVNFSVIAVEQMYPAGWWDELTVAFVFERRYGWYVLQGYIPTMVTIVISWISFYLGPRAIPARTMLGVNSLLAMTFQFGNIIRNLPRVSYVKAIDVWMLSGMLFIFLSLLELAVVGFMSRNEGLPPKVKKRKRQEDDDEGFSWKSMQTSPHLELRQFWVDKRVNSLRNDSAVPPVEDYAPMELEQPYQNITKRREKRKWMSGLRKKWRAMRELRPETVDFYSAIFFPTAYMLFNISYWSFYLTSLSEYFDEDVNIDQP
Sequence of ACC-2D6.3 channel (Q18812 whole entry, looked up): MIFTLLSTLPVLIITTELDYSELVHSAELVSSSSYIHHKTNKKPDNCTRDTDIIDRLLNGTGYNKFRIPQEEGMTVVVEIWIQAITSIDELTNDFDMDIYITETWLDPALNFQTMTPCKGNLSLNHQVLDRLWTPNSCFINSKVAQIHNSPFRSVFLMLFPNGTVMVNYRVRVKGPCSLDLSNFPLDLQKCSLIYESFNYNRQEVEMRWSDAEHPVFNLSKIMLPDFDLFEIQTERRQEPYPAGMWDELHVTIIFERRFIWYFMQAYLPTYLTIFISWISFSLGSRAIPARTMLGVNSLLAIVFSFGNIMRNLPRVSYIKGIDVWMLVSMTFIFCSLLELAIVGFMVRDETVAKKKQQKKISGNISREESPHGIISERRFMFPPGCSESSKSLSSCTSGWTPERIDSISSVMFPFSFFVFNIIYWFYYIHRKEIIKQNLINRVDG
Sequence of ACC-2 F160Y (Q18812 whole entry F160Y, looked up): as the sequence (Q18812 whole entry, looked up) above, with F160Y counted along it
Sequence of ACC-2 Y100L (Q18812 whole entry Y100L, looked up): as the sequence (Q18812 whole entry, looked up) above, with Y100L counted along it

With CC(=O)OCC[N+](C)(C)C [ACh, acetylcholine] the “estimated Hill coefficient (agonist)” value (ACC-2D6.3 channel) was 2.64±0.08, the EC50 (ACC-2D6.3 channel; [3]) was 9.54 ± 0.11 µM and the EC50 (ACC-2D6.3 channel; EC50, Table 4) was 9.5 µM. For the same compound, the current response (ACC-3D10.5) was 10-30 nA, the “response (in words)” value (ACC-4E9.9) was “no response” and the current response (ACC-2D6.3+ACC-3D10.5) was 50-60 nA. The “response (in words)” value (ACC-2D6.3+ACC-4E9.9) was “did not respond”, the EC50 (ACC-2 Y100L) was 351 ± 33 µM and the EC50 (ACC-2 F160Y) was 44 ± 1.8 µM.

COC(=O)C1=CCCN(C)C1 [arecoline] was tested, and the “estimated Hill coefficient (agonist)” value (ACC-1G6.4 channel [1]; agonist dose-response) was 1.59±0.09, the “agonist action (in words)” value (ACC-1G6.4 channel [1]; [4]) was “agonists; also recorded: strong agonist; also recorded: strongly” and the “antagonist action (in words)” value (ACC-1G6.4 channel [1]; [4]) was “did not inhibit the ACh response”. The EC50 (ACC-1G6.4 channel [1]; oocytes clamped at −80 mV, read-out: EC50 (agonist)) was 4.7 ± 0.11 µM, the “evoked current as % of the maximal ACh-elicited current” value (ACC-1G6.4 channel [2]) was 82-89% and the “evoked current as % of the maximal ACh-elicited current” value (ACC-2D6.3 channel) was 82-89%. For the same compound, the EC50 (ACC-2D6.3 channel; [3]) was 754 ± 22 µM, the “estimated Hill coefficient (agonist)” value (ACC-2D6.3 channel; agonist dose-response) was 2.66±0.23 and the “antagonist action (in words)” value (ACC-2D6.3 channel; [4]) was “did not inhibit the ACh response”.
